The source of these data is paper PMC8703412 (Pharmaceuticals, 2021).

Values after ≈ are worked out from the molar mass of the structure shown. Where two headings read alike, the source gives them in different places.

Data set [1] concerns Mycobacterium tuberculosis strain 331/88 (i.e., H37Rv). The data set can be described thus: MIC micromethod in Šula's medium, drug-susceptible Mtb. Format: cell-based. Conditions: Mycobacterium tuberculosis, H37RV.
In data set [2] the test system is Mycobacterium avium 330/88. The data set can be described thus: MIC micromethod in Šula's medium, M. avium. Format: cell-based. Conditions: Mycobacterium avium, Table 1.
The subject of data set [3] is Mycobacterium kansasii 6509/96 (clinical isolate). Put plainly: MIC micromethod in Šula's medium, M. kansasii. Conditions: Mycobacterium kansasii. Type of data set: cell-based.
Data set [4] deals with Mtb. H37Ra pMV261/pVV16. Put plainly: microbe, parasite or virus in culture. Type of data set: cell-based, Mycobacterium tuberculosis.
Data set [5] has as its system Mtb. H37Ra pMV261-inhA. Put plainly: microbe, parasite or virus in culture. Type of data set: cell-based, Mycobacterium tuberculosis.
The test system of data set [6] is Mtb. H37Ra pVV16-katGsmeg. Put plainly: microbe, parasite or virus in culture. As to conditions: Mycobacterium tuberculosis, 672 h, read-out: MIC H37Ra pVV16-katGsmeg. Type of data set: cell-based.
The nature of data set [7]: Cytotoxicity, CellTiter 96 (MTS) assay. Conditions: human, Cytotoxicity for HepG2 cells, IC50, 24 h incubation, 1–1000 µM.
Data set [8] has as its system HepG2 cells. Put plainly: Cytotoxicity, CellTiter 96 (MTS) assay. As to conditions: read-out: Cytotoxicity for HepG2 cells, IC50; 24 h incubation, 1–1000 µM.
Data set [9] concerns Mycobacterium tuberculosis strain 331/88 (i.e., H37Rv). Further details: method as in PMID 34198149. Conditions: cited from earlier work.
For data set [10], the system named is Mycobacterium avium 330/88. Further details: method as in PMID 34198149. Conditions: cited from earlier work.
Data set [11] has as its system Mycobacterium kansasii 6509/96 (clinical isolate). Further details: method as in PMID 34198149. Conditions: cited from earlier work.
Where [12] appears, read: 336 h, 14 d incubation, esters, Table 1, read-out: MIC Mtb. 331/88 14 d.
[13] abbreviates: 504 h, 21 d incubation, esters, Table 1, read-out: MIC Mtb. 331/88 21 d.
The mark [14] stands for this setting: 330/88, 336 h, 14 d incubation, read-out: MIC M. avium 330/88 14 d.
Setting [15] is: 330/88, 504 h, 21 d incubation, read-out: MIC M. avium 330/88 21 d.
Setting [16] is: 168 h, 7 d incubation, Table 1, read-out: MIC M. kansasii 6509/96 7 d.
Setting [17] is: 336 h, 14 d incubation, Table 1, read-out: MIC M. kansasii 6509/96 14 d.
The mark [18] stands for this setting: 504 h, 21 d incubation, Table 1, read-out: MIC M. kansasii 6509/96 21 d.

Consider `C/C(=N\NC(=O)c1ccncc1)C(=O)Oc1cc(C(C)C)ccc1C` [3l, 2-Isopropyl-5-methyphenyl (E)-2-(2-isonicotinoylhydrazineylidene)propanoate], for which the MIC worked out at 0.25 µM (≈ 0.0848 µg/mL) in data set [1] (setting [12]); 0.25 µM (≈ 0.0848 µg/mL) in [1] (setting [13]); 0.25 µM (≈ 0.0848 µg/mL) in data set [1] (Table 4, read-out: MIC H37Rv); 125 µM (≈ 42.4 µg/mL) in data set [2] (setting [14]); 250 µM (≈ 84.8 µg/mL) in data set [2] (setting [15]); 0.25 µM (≈ 0.0848 µg/mL) in data set [3] (setting [16]). Further, the MIC in data set [3] (setting [17]) was 0.25 µM (≈ 0.0848 µg/mL); in data set [3] (setting [18]), 0.25 µM (≈ 0.0848 µg/mL); in data set [3] (504 h, text summary over 7, 14 and 21 d, read-out: MIC for M. kansasii 6509/96) it was not above 0.5 µM; in data set [4] (Mycobacterium tuberculosis, H37RA, 672 h, read-out: MIC H37Ra pMV261/pVV16) it was 0.25 µM (≈ 0.0848 µg/mL); in [5] (Mycobacterium tuberculosis, H37RA, 672 h, read-out: MIC H37Ra pMV261-inhA), 5 µM (≈ 1.7 µg/mL); in data set [6], 0.05 to 0.125 µM (≈ 0.017 to 0.0424 µg/mL). Moreover, in data set [4], the “MIC H37Ra pMV261/pVV16” value is reported as 0.25. In addition, the MIC H37Ra pMV261-inhA in [5] was found to be 5 µM. For the same compound, the IC50 (commonly the point on the concentration scale where inhibition reaches its midpoint) at 24 h in data set [7] is more than 1000 µM.
With `C/C(=N\NC(=O)c1ccncc1)C(=O)Oc1ccc(Oc2ccccc2)cc1` [3e, 4-Phenoxyphenyl (E)-2-(2-isonicotinoylhydrazineylidene)propanoate], the melting point – broadly, the temperature of the solid-liquid transition – was in the range of 152.4 to 155 °C. Besides, in [1] (setting [12]), the MIC is not above 0.125 µM. Moreover, in data set [1] (setting [13]), the MIC turned out to be 0.5 µM (≈ 0.188 µg/mL). Also, in data set [2] (setting [14]), the MIC was 250 µM (≈ 93.8 µg/mL). For the same compound, in data set [2] (setting [15]), the MIC is 500 µM (≈ 188 µg/mL). The MIC in [3] (setting [16]) worked out at 2 µM (≈ 0.751 µg/mL). The MIC in data set [3] (setting [17]) turned out to be 4 µM (≈ 1.5 µg/mL). In addition, the MIC in [3] (setting [18]) was 4 µM (≈ 1.5 µg/mL). The same compound yielded an IC50 at 24 h in data set [7] of 551 µM. Further, the concentration for half-maximal inhibition (IC50) in [8] was more than 500 µM.
For `C/C(=N\NC(=O)c1ccncc1)C(=O)OCCn1c([N+](=O)[O-])cnc1C` [3q, 2-(2-Methyl-5-nitro-1H-imidazol-1-yl)ethyl (E)-2-(2 isonicotinoylhydrazineylidene)propanoate], the melting point was in the range of 123 to 125.7 °C. For the same compound, the MIC in [1] (setting [12]) was 0.25 µM (≈ 0.0901 µg/mL). In data set [1] (setting [13]), the MIC stood at 0.5 µM (≈ 0.18 µg/mL). In data set [2] (setting [14]), the MIC turned out to be 500 µM (≈ 180 µg/mL). For the same compound, in data set [2] (setting [15]), the MIC is 1000 µM (≈ 360 µg/mL). Moreover, the MIC in data set [3] (setting [16]) stood at 2 µM (≈ 0.721 µg/mL). The MIC in data set [3] (setting [17]) worked out at 4 µM (≈ 1.44 µg/mL). In [3] (setting [18]), the MIC was found to be 4 µM (≈ 1.44 µg/mL). This compound registered an IC50 at 24 h in data set [7] of more than 1000 µM.
In the case of `C/C(=N\NC(=O)c1ccncc1)C(=O)Sc1ccccc1` [3s, S-Phenyl (E)-2-(2-isonicotinoylhydrazineylidene)propanethioate], the melting point was 186 to 187 °C. For the same compound, the MIC in data set [1] (setting [12]) worked out at 0.25 µM (≈ 0.0748 µg/mL). In addition, in data set [1] (setting [13]), the MIC is 0.25 µM (≈ 0.0748 µg/mL). The MIC in data set [2] (setting [14]) turned out to be 250 µM (≈ 74.8 µg/mL). In addition, the MIC in data set [2] (setting [15]) stood at 250 µM (≈ 74.8 µg/mL). Also, the MIC in [3] (setting [16]) was 1 µM (≈ 0.299 µg/mL). The MIC in [3] (setting [17]) was determined as 2 µM (≈ 0.599 µg/mL). Also, in data set [3] (setting [18]), the MIC worked out at 4 µM (≈ 1.2 µg/mL). Besides, the IC50 at 24 h in data set [7] came out at 182 µM.
On to `CCSC(=O)/C(C)=N/NC(=O)c1ccncc1` [3r, S-Ethyl (E)-2-(2-isonicotinoylhydrazineylidene)propanethioate], for which the melting point lay within 158 to 160 °C. Besides, the MIC in [1] (setting [12]) was 0.25 µM (≈ 0.0628 µg/mL). Also, the MIC in data set [1] (setting [13]) stood at 0.25 µM (≈ 0.0628 µg/mL). Besides, the MIC in [2] (setting [14]) came to 250 µM (≈ 62.8 µg/mL). For the same compound, the MIC in data set [2] (setting [15]) was determined as 500 µM (≈ 126 µg/mL). Moreover, the MIC in [3] (setting [16]) stood at 1 µM (≈ 0.251 µg/mL). Besides, in data set [3] (setting [17]), the MIC came out at 2 µM (≈ 0.503 µg/mL). The MIC in data set [3] (setting [18]) is 4 µM (≈ 1.01 µg/mL). The same compound registered a half-maximal inhibitory concentration (IC50) at 24 h in [7] of more than 1000 µM.
In the case of `C/C(=N\NC(=O)c1ccncc1)C(=O)O` [compound 2, (E)-2-(2-isonicotinoylhydrazineylidene)propanoic acid], the “MIC Mtb. 331/88 14 d” value in data set [9] (14 d incubation) is reported as 1 µM (≈ 0.207 µg/mL). Also, the “MIC Mtb. 331/88 21 d” value in [9] (21 d incubation) is recorded as 1 µM (≈ 0.207 µg/mL). Besides, the “MIC M. avium 330/88 14 d” value in [10] (14 d incubation) is 500 µM (≈ 104 µg/mL). Further, the “MIC M. avium 330/88 21 d” value in [10] (21 d incubation) is given as more than 1000 µM. For the same compound, the “MIC M. kansasii 6509/96 7 d” value in data set [11] (7 d incubation) is listed as 8 µM (≈ 1.66 µg/mL). The “MIC M. kansasii 6509/96 14 d” value in data set [11] (14 d incubation) is on record as 16 µM (≈ 3.32 µg/mL). Moreover, the “MIC M. kansasii 6509/96 21 d” value in [11] (21 d incubation) is on record as 16 µM (≈ 3.32 µg/mL).
